Target: full length MPS1 (Homo sapiens (Human), UniProt P33981)
Assay: Measurement of inhibition of MPS1 kinase (Caliper EZ reader mobility-shift enzyme assay)
Type: biochemical
Details: full length MPS1 12.5 nM or 3 nM, H236 peptide 5 μM, ATP 10 μM, 60 min at room temperature
Protocol: Measurement of Inhibition of MPS1 Kinase
The reaction was carried out for 60 min at room temperature and stopped by the addition of buffer (10 μl) containing 20 mM EDTA, 0.05% (v/v) Brij-35, in 0.1M HEPES-buffered saline (Free acid, Sigma, UK). The plate was read on a Caliper EZ reader II (Caliper Life Sciences).
The % inhibition of the compounds is calculated relative to the means of selected control wells.

full length MPS1, sequence (P33981 whole entry): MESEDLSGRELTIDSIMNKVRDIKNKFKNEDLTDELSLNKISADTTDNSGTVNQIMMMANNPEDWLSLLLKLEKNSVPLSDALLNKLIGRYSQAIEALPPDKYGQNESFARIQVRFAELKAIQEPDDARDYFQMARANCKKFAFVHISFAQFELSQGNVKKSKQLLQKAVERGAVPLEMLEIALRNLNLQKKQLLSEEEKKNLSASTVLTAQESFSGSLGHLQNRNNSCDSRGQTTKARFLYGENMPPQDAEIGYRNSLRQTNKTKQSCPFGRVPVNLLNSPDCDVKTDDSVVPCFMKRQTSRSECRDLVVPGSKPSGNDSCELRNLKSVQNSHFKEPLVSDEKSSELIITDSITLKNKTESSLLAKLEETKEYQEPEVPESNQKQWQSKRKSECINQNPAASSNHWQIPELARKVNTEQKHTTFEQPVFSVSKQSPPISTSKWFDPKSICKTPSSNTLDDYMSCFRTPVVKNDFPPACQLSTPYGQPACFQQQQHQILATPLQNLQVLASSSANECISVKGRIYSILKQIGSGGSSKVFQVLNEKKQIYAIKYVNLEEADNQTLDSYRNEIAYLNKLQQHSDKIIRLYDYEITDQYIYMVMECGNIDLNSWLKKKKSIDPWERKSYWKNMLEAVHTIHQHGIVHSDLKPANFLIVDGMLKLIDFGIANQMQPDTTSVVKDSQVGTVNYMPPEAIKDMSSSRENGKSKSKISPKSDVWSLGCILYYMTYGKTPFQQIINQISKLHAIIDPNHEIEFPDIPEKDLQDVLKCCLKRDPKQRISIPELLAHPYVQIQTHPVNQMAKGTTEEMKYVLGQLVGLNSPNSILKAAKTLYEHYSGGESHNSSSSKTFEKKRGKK

Structure (SMILES): COc1nc(N2CCOCC2)ccc1Nc1ncc2ccnc(NCC(C)(C)C)c2n1 [Example 45, N^2-(2-methoxy-6-morpholinopyridin-3-yl)-N8-neopentylpyrido[3,4-d]pyrimidine-2,8-diamine]
- IC50: 13 nM

Structure (SMILES): COc1nc(S(C)(=O)=O)ccc1Nc1ncc2ccnc(NCC(C)(C)C)c2n1 [Example 46, N2-(2-methoxy-6-(methylsulfonyl)pyridin-3-yl)-N8-neopentylpyrido[3,4-d]pyrimidine-2,8-diamine]
- IC50: 17 nM

Structure (SMILES): COc1cc(-c2cncn2C)ccc1Nc1ncc2ccnc(NCC(C)(C)C)c2n1 [Example 47, N2-(2-methoxy-4-(1-methyl-1H-imidazol-5-yl)phenyl)-N8-neopentylpyrido[3,4-d]pyrimidine-2,8-diamine]
- IC50: 2 nM

Structure (SMILES): COc1cc(-c2cnc(C)n2C)ccc1Nc1ncc2ccnc(NCC(C)(C)C)c2n1 [Example 50, N2-(4-(1,2-dimethyl-1H-imidazol-5-yl)-2-methoxyphenyl)-N8-neopentylpyrido[3,4-d]pyrimidine-2,8-diamine]
- IC50: 7 nM

Structure (SMILES): COc1cc(-c2cnn(C)c2)ccc1Nc1ncc2cc(C)nc(NCC(C)(C)C)c2n1 [Example 51, N^2-(2-methoxy-4-(1-methyl-1H-pyrazol-4-yl)phenyl)-6-methyl-N8-neopentylpyrido[3,4-d]pyrimidine-2,8-diamine]
- IC50: 29 nM

Structure (SMILES): COc1cc(N2CCOCC2)ccc1Nc1ncc2ccnc(NCC(C)(C)C)c2n1 [Example 52, N2-(2-methoxy-4-morpholinophenyl)-N8-neopentyprido[3,4-d]pyrimidine-2,8-diamine]
- IC50: 8 nM

Structure (SMILES): COc1cc(-c2cnn(C)c2)ccc1Nc1ncc2ccnc(N3CCC(C)C3)c2n1 (centres unmarked) [Example 56, N-(2-methoxy-4-(1-methyl-1H-pyrazol-4-yl)phenyl)-8-(3-methylpyrrolidin-1-yl)pyrido[3,4-d]pyrimidin-2-amine]
- IC50: 10 nM

Structure (SMILES): COc1cc(-c2cnn(C)c2)ccc1Nc1ncc2ccnc(N3CCC(F)(F)C3)c2n1 [Example 57, 8-(3,3-difluoropyrroldin-1-yl)-N-(2-methoxy-4-(1-methyl-1H-pyrazol-4-yl)phenyl)pyrido[3,4-d]pyrimidin-2-amine]
- IC50: 12 nM

Structure (SMILES): COc1cc(-c2cnn(C)c2)ccc1Nc1ncc2ccnc(N(C)C3CCCC3)c2n1 [Example 59, N8-cyclopentyl-N2-(2-methoxy-4-(1-methyl-1H-pyrazol-4-yl)phenyl)-N8-methylpyrido[3,4-d]pyrimidine-2,8-diamine]
- IC50: 45 nM

Structure (SMILES): COc1cc(-c2cnn(C)c2)ccc1Nc1ncc2ccnc(NCCC(C)C)c2n1 [Example 60, N8-isopentyl-N2-(2-methoxy-4-(1-methyl-1H-pyrazol-4-yl)phenyl)pyrido[3,4-d]pyrimidine-2,8-diamine]
- IC50: 21 nM

Structure (SMILES): COc1cc(-c2cnn(C)c2)ccc1Nc1ncc2ccnc(N3CCOCC3)c2n1 [Example 61, N-(2-methoxy-4-(1-methyl-1H-pyrazol-4-yl)phenyl)-8-morpholinopyrido[3,4-d]pyrimidin-2-amine]
- IC50: 3 nM

Structure (SMILES): COc1cc(-c2cnn(C)c2)ccc1Nc1ncc2ccnc(N3CCN(C)CC3)c2n1 [Example 62, N-(2-methoxy-4-(1-methyl-1H-pyrazol-4-yl)phenyl)-8-(4-methylpiperazin-1-yl)pyrido[3,4-d]pyrimidin-2-amine]
- IC50: 9 nM

Structure (SMILES): COc1cc(-c2cnn(C)c2)ccc1Nc1ncc2ccnc(N3CC(F)(F)C3)c2n1 [Example 63, 8-(3,3-difluoroazetidin-1-yl)-N-(2-methoxy-4-(1-methyl-1H-pyrazol-4-yl)phenyl)pyrido[3,4-d]pyrimidin-2-amine]
- IC50: 25 nM

Structure (SMILES): COc1cc(-c2cnn(C)c2)ccc1Nc1ncc2ccnc(N3CCC4(CCC4)C3)c2n1 [Example 66, N-(2-methoxy-4-(1-methyl-1H-pyrazol-4-yl)phenyl)-8-(6-azaspiro[3.4]octan-6-yl)pyrido[3,4-d]pyrimidin-2-amine]
- IC50: 8 nM

Structure (SMILES): COc1cc(-c2cnn(C)c2)ccc1Nc1ncc2ccnc(N3CC(OC)C3)c2n1 [Example 67, N-(2-methoxy-4-(1-methyl-1H-pyrazol-4-yl)phenyl)-8-(3-methoxyazetidin-1-yl)pyrido[3,4-d]pyrimidin-2-amine]
- IC50: 10 nM

Structure (SMILES): COc1cc(-c2cnn(C)c2)ccc1Nc1ncc2ccnc(NC3CCOCC3)c2n1 [Example 69, N2-(2-methoxy-4-(1-methyl-1H-pyrazol-4-yl)phenyl)-N8-(tetrahydro-2H-pyran-4-yl)pyrido[3,4-d]pyrimidine-2,8-diamine]
- IC50: 3 nM

Structure (SMILES): COc1cc(-c2cnn(C)c2)ccc1Nc1ncc2ccnc(NCC(C)(C)O)c2n1 [Example 71, 1-((2-((2-methoxy-4-(1-methyl-1H-pyrazol-4-yl)phenyl)amino)pyrido[3,4-d]pyrimidin-8-yl)amino)-2-methylpropan-2-ol]
- IC50: 6 nM

Structure (SMILES): COc1cc(-c2cnn(C)c2)ccc1Nc1ncc2ccnc(NCC3COC3)c2n1 [Example 72, N2-(2-methoxy-4-(1-methyl-1H-pyrazol-4-yl)phenyl)-N8-(oxetan-3-ylmethyl)pyrido[3,4-d]pyrimidine-2,8-diamine]
- IC50: 5 nM

Structure (SMILES): COc1cc(-c2cnn(C)c2)ccc1Nc1ncc2ccnc(NCC(C)(C)CO)c2n1 [Example 74, 3-((2-((2-methoxy-4-(1-methyl-1H-pyrazol-4-yl)phenyl)amino)pyrido[3,4-d]pyrimidin-8-yl)amino)-2,2-dimethylpropan-1-ol]
- IC50: 4 nM

Structure (SMILES): COc1cc(-c2cnn(C)c2)ccc1Nc1ncc2ccnc(NC(C)C3CC3)c2n1 (centres unmarked) [Example 75, N8-(1-cyclopropylethyl)-N2-(2-methoxy-4-(1-methyl-1H-pyrazol-4-yl)phenyl)pyrido[3,4-d]pyrimidine-2,8-diamine]
- IC50: 4 nM

Structure (SMILES): COc1cc(-c2cnn(C)c2)ccc1Nc1ncc2ccnc(NC3CCOC3)c2n1 (centres unmarked) [Example 78, N2-(2-methoxy-4-(1-methyl-1H-pyrazol-4-yl)phenyl)-N8-(tetrahydrofuran-3-yl)pyrido[3,4-d]pyrimidine-2,8-diamine]
- IC50: 8 nM

Structure (SMILES): COc1cc(-c2cnn(C)c2)ccc1Nc1ncc2ccnc(NCC3CCOC3)c2n1 (centres unmarked) [Example 79, N2-(2-methoxy-4-(1-methyl-1H-pyrazol-4-yl)phenyl)-N8-((tetrahydrofuran-3-yl)methyl)pyrido[3,4-d]pyrimidine-2,8-diamine]
- IC50: 5 nM

Structure (SMILES): COc1cc(-c2cnn(C)c2)ccc1Nc1ncc2ccnc(N3CCC(O)C3)c2n1 (centres unmarked) [Example 80, 1-(2-(2-methoxy-4-(1-methyl-1H-pyrazol-4-yl)phenylamino)pyrido[3,4-d]pyrimidin-8-yl)pyrrolidin-3-ol]
- IC50: 6 nM

Structure (SMILES): COc1cc(-c2cnn(C)c2)ccc1Nc1ncc2ccnc(N(C)C3CCOCC3)c2n1 [Example 81, N2-(2-methoxy-4-(1-methyl-1H-pyrazol-4-yl)phenyl)-N8-methyl-N8-(tetrahydro-2H-pyran-4-yl)pyrido[3,4-d]pyrimidine-2,8-diamine]
- IC50: 33 nM

Structure (SMILES): COc1cc(-c2cnn(C)c2)ccc1Nc1ncc2ccnc(NC(C)(C)C)c2n1 [Example 82, N8-tert-butyl-N2-(2-methoxy-4-(1-methyl-1H-pyrazol-4-yl)phenyl)pyrido[3,4-d]pyrimidine-2,8-diamine]
- IC50: 25 nM

Structure (SMILES): COc1cc(-c2cnn(C)c2)ccc1Nc1ncc2ccnc(NC3(C)CCCCC3)c2n1 [Example 83, N2-(2-methoxy-4-(1-methyl-1H-pyrazol-4-yl)phenyl)-N8-(1-methylcyclohexyl)pyrido[3,4-d]pyrimidine-2,8-diamine]
- IC50: 19 nM
